{"source": "BindingDB's records for doi:10.7270/Q2M32T6M", "about": "(Vanderbilt Screening Center for GPCRs, Ion Channels and …, 2009)", "data": [{"target": "T1, Solute carrier family 12 member 5 (Homo sapiens, UniProt Q9H2X9)", "T1 sequence (Q9H2X9 whole entry)": "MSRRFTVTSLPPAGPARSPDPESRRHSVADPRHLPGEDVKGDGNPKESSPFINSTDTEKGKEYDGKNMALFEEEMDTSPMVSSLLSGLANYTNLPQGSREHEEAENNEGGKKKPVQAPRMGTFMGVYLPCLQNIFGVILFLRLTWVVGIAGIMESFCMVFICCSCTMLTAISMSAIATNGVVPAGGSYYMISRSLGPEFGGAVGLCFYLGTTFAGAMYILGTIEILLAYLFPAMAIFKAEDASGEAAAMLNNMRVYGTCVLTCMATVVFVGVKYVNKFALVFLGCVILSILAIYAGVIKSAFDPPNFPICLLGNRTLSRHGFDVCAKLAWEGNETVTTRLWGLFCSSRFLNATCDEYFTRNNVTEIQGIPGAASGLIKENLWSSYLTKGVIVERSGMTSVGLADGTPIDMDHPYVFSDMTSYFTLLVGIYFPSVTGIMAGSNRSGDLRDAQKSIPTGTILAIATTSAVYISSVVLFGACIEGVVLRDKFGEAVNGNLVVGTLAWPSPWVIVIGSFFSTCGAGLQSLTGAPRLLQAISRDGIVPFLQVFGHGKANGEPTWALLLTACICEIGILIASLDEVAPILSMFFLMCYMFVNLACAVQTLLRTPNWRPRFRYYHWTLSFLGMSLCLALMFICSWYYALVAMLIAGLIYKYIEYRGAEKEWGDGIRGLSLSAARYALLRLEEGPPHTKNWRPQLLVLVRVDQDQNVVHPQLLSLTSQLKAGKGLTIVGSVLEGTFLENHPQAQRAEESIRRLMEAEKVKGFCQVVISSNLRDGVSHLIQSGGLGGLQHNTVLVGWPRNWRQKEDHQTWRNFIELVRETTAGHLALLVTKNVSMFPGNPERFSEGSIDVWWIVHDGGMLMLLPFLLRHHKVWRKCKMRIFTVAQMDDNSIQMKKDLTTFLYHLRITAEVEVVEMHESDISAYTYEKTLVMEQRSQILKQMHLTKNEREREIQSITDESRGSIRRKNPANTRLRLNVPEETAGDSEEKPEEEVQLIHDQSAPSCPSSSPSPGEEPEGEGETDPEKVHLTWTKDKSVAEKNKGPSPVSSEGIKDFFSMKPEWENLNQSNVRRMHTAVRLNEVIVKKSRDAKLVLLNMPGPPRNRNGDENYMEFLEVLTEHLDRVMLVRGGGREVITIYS", "assay": "KCC2 modulator potency by thallium flux, dose response, cell-based, HEK293 KCC2, FluoZin-2 fluorescence (AID 1736)", "settings": "not given", "units": {"EC50": "µM"}, "values": [{"compound": "CC1(CCc2ccccc2)NC(=O)N(Cc2nnc(-c3ccccc3Br)o2)C1=O", "note": "(configuration not stated) [3-[[5-(2-bromophenyl)-1,3,4-oxadiazol-2-yl]methyl]-5-methyl-5-(2-phenylethyl)imidazolidine-2,4-dione]", "EC50": 6.01}, {"compound": "O=C(CSc1ncccc1-c1nc2ccccc2[nH]1)N1CCN(c2ccccc2F)CC1", "note": "[MLS000033700]", "EC50": 26.5}, {"compound": "Cn1c(C(=O)NCCN2CCN(c3ccccc3F)CC2)cc2c(=O)n(C)c3ccccc3c21", "note": "[MLS000118132]", "EC50": 1.74}, {"compound": "CC(=NNC(=O)c1ccc(Cl)c(Cl)c1)c1ccc(Br)s1", "note": "[N-[1-(5-bromo-2-thiophenyl)ethylideneamino]-3,4-dichlorobenzamide]", "EC50": 1.46}, {"compound": "Cc1cccc(-c2nc(C[S+]([O-])CC(=O)N3CCc4ccccc4C3)c(C)o2)c1", "note": "(configuration not stated) [1-(3,4-dihydro-1H-isoquinolin-2-yl)-2-[[5-methyl-2-(3-methylphenyl)-1,3-oxazol-4-yl]methylsulfinyl]ethanone]", "EC50": 13.7}, {"compound": "N#CC1=C(SCc2ccccc2)N=C(N)C(C#N)C12CCCCC2", "note": "(configuration not stated) [2-azanyl-4-(phenylmethylsulfanyl)-3-azaspiro[5.5]undeca-1,4-diene-1,5-dicarbonitrile]", "EC50": 11.9}, {"compound": "Cc1nonc1NC(=O)CSc1ccc(-c2ccccc2)nn1", "note": "[MLS000074514]", "EC50": 1.56}, {"compound": "Cc1cccc(OCCc2nnc(N)s2)c1C", "note": "[5-[2-(2,3-Dimethyl-phenoxy)-ethyl]-[1,3,4]thiadiazol-2-ylamine]", "EC50": 6.16}, {"compound": "COc1ccc(S(=O)(=O)N(CCc2ccccc2)CC(=O)O)cc1Cl", "note": "[2-[(3-chloranyl-4-methoxy-phenyl)sulfonyl-(2-phenylethyl)amino]ethanoic acid]", "EC50": 11.9}, {"compound": "CCc1ccc(Nc2nnc(SCC(=O)Nc3sccc3C(N)=O)s2)cc1", "note": "[2-[2-[[5-[(4-ethylphenyl)amino]-1,3,4-thiadiazol-2-yl]sulfanyl]ethanoylamino]thiophene-3-carboxamide]", "EC50": 3.54}, {"compound": "O=C(COC(=O)c1cc([N+](=O)[O-])ccc1NCCO)c1ccccc1", "note": "[2-(2-hydroxyethylamino)-5-nitro-benzoic acid phenacyl ester]", "EC50": 31.1}, {"compound": "O=C(C1CCN(S(=O)(=O)c2cccc3nsnc23)CC1)N1CCc2ccccc2C1", "note": "[2-{[1-(2,1,3-benzothiadiazol-4-ylsulfonyl)piperidin-4-yl]carbonyl}-1,2,3,4-tetrahydroisoquinoline]", "EC50": 23.8}, {"compound": "Cc1ccc(S(=O)(=O)N2CCC(=O)N(C(COCc3ccccc3)Cc3ccccc3)CC2)cc1", "note": "(configuration not stated) [1-(4-methylphenyl)sulfonyl-4-(1-phenyl-3-phenylmethoxy-propan-2-yl)-1,4-diazepan-5-one]", "EC50": 1.24}, {"compound": "COC(=O)[C@@H](NC(=O)O[C@@H]1C(=O)c2ccc(OC)cc2O[C@H]1c1cccc(C(F)(F)F)c1)C(C)C", "note": "[(2S)-2-[[(2S,3S)-4-keto-7-methoxy-2-[3-(trifluoromethyl)phenyl]chroman-3-yl]oxycarbonylamino]-3-methyl-butyric acid methyl ester]", "EC50": 1.85}, {"compound": "Cc1ccccc1OCC(=O)NNC(=O)CCN1C(=O)c2ccccc2C1=O", "note": "[3-(1,3-dioxo-2-isoindolyl)-N'-[2-(2-methylphenoxy)-1-oxoethyl]propanehydrazide]", "EC50": 432}, {"compound": "CC1CCCCN1C(=O)CSc1ccc(-c2ccc(F)cc2)nn1", "note": "(configuration not stated) [2-[6-(4-Fluoro-phenyl)-pyridazin-3-ylsulfanyl]-1-(2-methyl-piperidin-1-yl)-ethanone]", "EC50": 3.78}, {"compound": "O=C(Nc1ccc(Cc2ccncc2)cc1)c1cccc([N+](=O)[O-])c1", "note": "[3-Nitro-N-(4-pyridin-4-ylmethyl-phenyl)-benzamide]", "EC50": 4.96}, {"compound": "O=S(=O)(Nc1nc2ccccc2nc1N1CCN(c2ccccn2)CC1)c1ccc(Cl)cc1", "note": "[4-chloranyl-N-[3-(4-pyridin-2-ylpiperazin-1-yl)quinoxalin-2-yl]benzenesulfonamide]", "EC50": 14.9}, {"compound": "Cc1ccc2oc(-c3ccc(C)c(NC(=S)NC(=O)c4cccs4)c3)nc2c1", "note": "[1-[2-Methyl-5-(5-methyl-benzooxazol-2-yl)-phenyl]-3-(thiophene-2-carbonyl)-thiourea]", "EC50": 0.761}, {"compound": "Cc1ccc(NC(=O)c2ccccc2NS(=O)(=O)c2ccc(Cl)s2)cc1", "note": "[2-[(5-chloranylthiophen-2-yl)sulfonylamino]-N-(4-methylphenyl)benzamide]", "EC50": 1.07}, {"compound": "Oc1c(Br)cc(Br)cc1C=NNC(=S)N[C@H]1CC2C=CC1C2", "note": "(some centres not stated) [SMR000455893]", "EC50": 12.7}, {"compound": "O=C(CSc1nnc(-c2ccc(F)cc2)o1)N1CCN(C(=O)c2ccco2)CC1", "note": "[2-[5-(4-Fluoro-phenyl)-[1,3,4]oxadiazol-2-ylsulfanyl]-1-[4-(furan-2-carbonyl)-piperazin-1-yl]-ethanone]", "EC50": 5.32}, {"compound": "CC[C@H](CO)Nc1nc(Nc2cccc(Cl)c2)c2ncn(C(C)C)c2n1", "note": "[(R)-2-(6-(3-chlorophenylamino)-9-isopropyl-9H-purin-2-ylamino)butan-1-ol]", "EC50": 10.6}, {"compound": "CC12CC3(C)CC(C)(C1)CC(C(=O)NC(=S)N1CCCC1)(C2)C3", "note": "[3,5,7-trimethyl-N-pyrrolidin-1-ylcarbothioyl-adamantane-1-carboxamide]", "EC50": 0.541}, {"compound": "O=C(NCc1cccs1)c1nc2c(nnn2Cc2ccc(F)cc2)c(=O)[nH]1", "note": "[MLS000074753]", "EC50": 41100}, {"compound": "CCc1ccc(OCCNC(=O)c2ccccc2SCc2ccccc2)cc1", "note": "[2-(benzylthio)-N-[2-(4-ethylphenoxy)ethyl]benzamide]", "EC50": 35.2}, {"compound": "O=C(OC1CCc2ccccc2C1=O)c1ccccc1O", "note": "(configuration not stated) [MLS000051417]", "EC50": 26.5}, {"compound": "O=C(NCc1nc(-c2ccccc2)cs1)c1ccccc1", "note": "[MLS000661971]", "EC50": 544}, {"compound": "Cc1nc(SCc2ccc(F)cc2)c([N+](=O)[O-])[nH]1", "note": "[SMR000271028]", "EC50": 4.66}, {"compound": "COc1ccc(-c2nnc(S/C(=C/c3ccc(Cl)cc3)C(=O)O)o2)cc1", "note": "[(E)-3-(4-chlorophenyl)-2-[[5-(4-methoxyphenyl)-1,3,4-oxadiazol-2-yl]sulfanyl]prop-2-enoic acid]", "EC50": 0.388}, {"compound": "Cc1cccc(Nc2nnc(SCC(=O)c3ccc(Br)s3)s2)c1C", "note": "[1-(5-bromanylthiophen-2-yl)-2-[[5-[(2,3-dimethylphenyl)amino]-1,3,4-thiadiazol-2-yl]sulfanyl]ethanone]", "EC50": 4.28}, {"compound": "O=C(C=Cc1ccccc1)CC(=O)c1ccccc1O", "note": "[MLS000627068]", "EC50": 10}, {"compound": "O=C(CN1C(=O)NC2(CCCC2)C1=O)Nc1nc(-c2ccc(F)cc2)cs1", "note": "[2-(2,4-diketo-1,3-diazaspiro[4.4]nonan-3-yl)-N-[4-(4-fluorophenyl)thiazol-2-yl]acetamide]", "EC50": 0.156}]}, {"target": "T1, Solute carrier family 12 member 5", "assay": "KCC2 modulator potency by thallium flux, dose response, cell-based, HEK293 KCC2, FluoZin-2 fluorescence (AID 1736)", "settings": "inactive by the depositor's call", "units": {"EC50": "µM"}, "values": [{"compound": "O=C(CSc1nc2cc(Cl)ccc2s1)Nc1cccc(S(=O)(=O)N2CCOCC2)c1", "note": "[2-[(5-chloranyl-1,3-benzothiazol-2-yl)sulfanyl]-N-(3-morpholin-4-ylsulfonylphenyl)ethanamide]", "EC50": 25.1}, {"compound": "C=CCN(c1ccc(OC)cc1)S(=O)(=O)c1ccc(Cl)c(C(=O)OCC(=O)NC2CC2)c1", "note": "[2-chloro-5-[(4-methoxyphenyl)-prop-2-enylsulfamoyl]benzoic acid [2-(cyclopropylamino)-2-oxoethyl] ester]", "EC50": 6.31}, {"compound": "Cc1ccc(N(CC(=O)NCCSc2ccccn2)S(=O)(=O)c2ccc(F)cc2)cc1", "note": "[2-(N-(4-fluorophenyl)sulfonyl-4-methyl-anilino)-N-[2-(2-pyridylthio)ethyl]acetamide]", "EC50": 2.87}, {"compound": "CC(C)CC(c1nnnn1Cc1cccs1)N1CCN(c2nc3ccccc3s2)CC1", "note": "(configuration not stated) [2-[4-[3-methyl-1-[1-(2-thenyl)tetrazol-5-yl]butyl]piperazino]-1,3-benzothiazole]", "EC50": 46.4}, {"compound": "C[C@@H](C(=O)Nc1ccc2ccccc2c1)[C@@H]1C[C@@]1(C)[C@@H](NC(=O)c1cccnc1)c1ccccc1", "note": "[MLS000563527]", "EC50": 16.9}, {"compound": "O=C(NC(=S)NNC(=O)c1ccccc1O)c1ccco1", "note": "[Furan-2-carboxylic acid [N'-(2-hydroxy-benzoyl)-hydrazinocarbothioyl]-amide]", "EC50": 303}, {"compound": "c1coc(CNc2nc3nonc3nc2NCc2ccco2)c1", "note": "[2-furfuryl-[5-(2-furfurylamino)furazano[3,4-b]pyrazin-6-yl]amine]", "EC50": 43.7}, {"compound": "O=C(Cn1nc(-c2ccccc2F)ccc1=O)NCc1ccc2c(c1)OCO2", "note": "[2-[3-(2-fluorophenyl)-6-keto-pyridazin-1-yl]-N-piperonyl-acetamide]", "EC50": 8.27}, {"compound": "CCc1ccc(-n2c(SCC(=O)c3ccc4c(c3)NC(=O)CO4)nc3ccccc3c2=O)cc1", "note": "[6-[2-[3-(4-ethylphenyl)-4-oxidanylidene-quinazolin-2-yl]sulfanylethanoyl]-4H-1,4-benzoxazin-3-one]", "EC50": 51.8}]}]}
